Patent US5648367A, “Aminoalkyloximes” (Hoechst Marion Roussel, Inc., priority 1995, dated 1997)
Where a name gives a salt, the structure may show the parent alone.

Test system: Serotonin Reuptake
Test: in vitro inhibition of serotonin uptake ([3H]-5HT uptake into whole rat brain synaptosomes)
Assay type: biochemical, rat (Male CR Wistar rats)
Settings: rat whole brain (minus cerebellum) synaptosomes; 50 nM [3H]-5HT; 5 minutes at 37° C.; pH 7.4; log probit analysis
Protocol: See, for example, W. K. Goodman, et al., Archives of General Psychiatry, 47, 577 (1990). […] In this assay, a modification of the tests described by A. S. Horn and R. C. A. M. Trace, British Journal of Pharmacology, 51, 399 (1974), A. Nagy and A. V. Delgado-Escueta, Journal of Neurochemistry, 43, 1114 (1984) and P. R. Dunkley, et al., Brain Research, 372, 115 (1986), the following reagents are prepared and employed:
Male CR Wistar rats (100-125 g)
3. Sucrose solution: 0.32M sucrose containing 5 mM HEPES and 0.1 mM EDTA; pH to 7.3 using Tris base.
4. A 0.1 mM stock solution of serotonin creatinine SO4 is made up in 0.01N HCl. This is used to dilute the specific activity of radiolabeled 5HT.
5. 5-[1,2-^3 H(N)]-Hydroxytryptamine creatinine sulfate (serotonin), specific activity 20-30 Ci/mmol, is used. The final desired concentration of [^3 H]-5HT in the assay is 50 nM. The dilution factor is 0.8. The KHBB is made up to contain 62.5 nM of [^3 H]-5HT.
6. For most assays, a 0.5 mM stock solution of the test compound is made up initially in either 10 μl of glacial acetic acid, 100 μl DMSO or 10 μl of the recrystallization solvent, to which is added approximately 10 ml of distilled water. Compounds are initially screened in duplicate at 3 concentrations (10^-8, 10^-7 and 10^-6 M) made up in water. […] To ensure consistency, the standard clomipramine is run with each assay.
Male Wistar rats are decapitated and the brain rapidly removed. Whole brain (minus cerebellum) is weighed and homogenized in 15 volumes of ice cold sucrose solution using a Potter-Elvejhem homogenizer. The following procedures are performed on ice. Homogenization should be done with 4-5 up and down strokes at medium speeds (setting 4.5 to 5) to minimize synaptosome lysis. The homogenate is centrifuged at 1000 g (3000 rpm, Sorvall SS-34 rotor) for 10 minutes at 0°-4° C. The supernatant is removed and approximately 10 ml per tube is carefully layered onto a discontinuous Percoll (Sigma cat# P-1644) gradient: 21% Percoll in sucrose solution at the bottom (15 ml per tube) and 10% Percoll in the middle (10 ml; colored with a few drops of phenol red for visibility).
The Percoil gradient tubes are carefully placed into a Beckman SW-28 swinging bucket rotor and spun in a Beckman XL90 ultracentrifuge using the following program: speed, 11,000 rpm (15,000 g) for 30 minutes at 4° C.; slow acceleration and deceleration (acceleration setting 9; deceleration setting 3). Tubes are carefully removed, and the top layer and the top part of the middle (red) layers are discarded using a pasteur pipette. The synaptosomes are located in the white fluffy band at the interface between the 10% and 21% Percoll layers. This is carefully removed, placed in a centrifuge tube, diluted with KHBB and spun at 21,000 g (13,000 rpm, Sorvall SS-34 rotor). The pellet (synaptosomes) is resuspended in KHBB (10 vol per gram original brain wet weight; 1 brain minus cerebellum weighs approximately 1.2 g; 2.5 brains are needed per typical assay).
20 μl Vehicle or appropriate drug
200 μl of the tissue suspension are added to each of 24 tubes (at a time) containing the 20 μl of vehicle or drug on ice. Three minutes later, 800 μl of KHBB containing [^3 H]-5HT are added, and tubes are vortexed. The rack containing the 24 tubes is moved from the ice bath to a water bath set at 37° C. The tubes are incubated for 5 minutes under 95% oxygen/5% carbon dioxide. Uptake is terminated by filtration through GF/B filter strips using a Brandel cell harvester (filter strips are presoaked in ice cold filtration buffer). Tubes are washed once with 5 ml of ice cold filtration buffer. Filter disks are placed in scintillation vials to which are added 10 ml of scintillation fluid (EcoScint). Filters are allowed to sit overnight before being counted.
For each assay, 3 tubes are incubated with 20 μl of vehicle at both 37° C. and 0° C.

## NCCON=C(CCCn1ccnc1)c1ccc(Cl)cc1 [1-(4-Chlorophenyl)-4-(1-(1H)-imidazolyl)-1-butanone O-(2-aminoethyl)oxime dihydrochloride]
  IC50: 0.16 µM

## NCCON=C(CCCn1ccnc1)c1ccc(F)cc1 [1-(4-Fluorophenyl)-4-(1-(1H)-imidazolyl)-1-butanone O-(2-aminoethyl)oxime dihydrochloride]
  IC50: 0.257 µM

## NCCON=C(CCn1ccnc1)c1ccc(C(F)(F)F)cc1 [3-(1-(1H)-Imidazolyl)-1-(4-trifluoromethylphenyl)-1-propanone O-(2-aminoethyl)oxime dihydrochloride]
  IC50: 0.164 µM

## NCCON=C(CCn1ccnc1)c1ccc(Cl)cc1 [4'-Chloro-3-(1-(1H)-imidazolyl)propiophenone O-(2-aminoethyl)oxime difumarate]
  IC50: 0.128 µM

## COc1ccc(C(CCn2ccnc2)=NOCCN)cc1 [4'-Methoxy-3-(1-(1H)-imidazolyl)propiophenone O-(2-aminoethyl)oxime difumarate hydrate]
  IC50: 1.28 µM

## NCCON=C(CCCn1ccnc1)c1ccc(C(F)(F)F)cc1 [4-(1-(1H)-Imidazolyl)-1-(4-trifluoromethylphenyl)-1-butanone O-(2-aminoethyl)oxime dihydrochloride]
  IC50: 0.08 µM

## NCCON=C(CCCn1ccnc1)c1ccccc1 [4-(1-(1H)-Imidazolyl)-1-phenyl-1-butanone O-(2-aminoethyl)oxime dihydrochloride]
  IC50: 1.81 µM

## Cc1nccn1CCCC(=NOCCN)c1ccccc1 [4-(2-Methyl-1-(1H)-imidazolyl)-1-phenyl-1-butanone O-(2-aminoethyl)oxime dihydrochloride]
  IC50: 0.656 µM
